Reference: article PMC9234962, “Optimization of Peptide Linker-Based Fluorescent Ligands for the Histamine H1 Receptor” (Journal of Medicinal Chemistry, 2022)
Square brackets hold non-standard residues; d marks the D form. Peptide text beside a SMILES is read from it. * marks the point of attachment. Propanoyl(3-Pip(4-O-2-BnPh)) = O=C(CCN1CCC(Oc2ccccc2Cc2ccccc2)CC1)*

Biological target: Nluc-H1R (Homo sapiens, UniProt P35367)
Assay: NanoBRET competition binding assay (displacement of 1) on Nluc-H1R expressing HEK293T cells
Settings: displacement of 1 (25 nM, KD = 8 nM), whole HEK293T cells, Cheng–Prusoff; for pKi: mean ± SEM, three experiments

Sequence of Nluc-H1R (P35367 whole entry): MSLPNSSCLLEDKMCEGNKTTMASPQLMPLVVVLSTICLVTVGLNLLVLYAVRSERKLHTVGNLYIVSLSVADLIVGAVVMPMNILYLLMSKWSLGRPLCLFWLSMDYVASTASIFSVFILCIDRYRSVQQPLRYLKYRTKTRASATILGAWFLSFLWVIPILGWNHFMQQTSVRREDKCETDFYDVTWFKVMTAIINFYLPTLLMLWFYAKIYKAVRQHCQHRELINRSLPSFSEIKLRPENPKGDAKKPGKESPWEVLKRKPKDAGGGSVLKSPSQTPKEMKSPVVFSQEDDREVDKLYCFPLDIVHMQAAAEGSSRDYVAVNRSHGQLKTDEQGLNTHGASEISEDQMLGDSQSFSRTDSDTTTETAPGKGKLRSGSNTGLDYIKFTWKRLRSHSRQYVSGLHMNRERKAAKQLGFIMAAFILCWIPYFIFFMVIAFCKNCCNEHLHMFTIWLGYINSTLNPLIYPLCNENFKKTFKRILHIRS

| Structure (SMILES) | Ki [nM] | pKi |
| --- | --- | --- |
| C[C@H](NC(=O)CCN1CCC(Oc2ccccc2Cc2ccccc2)CC1)C(=O)N[C@@H](C)C(=O)N[C@@H](C)C(=O)N[C@H](Cc1ccccc1)C(N)=O [Compound 8a, (S)-N-((R)-1-Amino-1-oxo-3-phenylpropan-2-yl)-2-((S)-2-((S)-2-(3-(4-(2-benzylphenoxy)piperidin-1-yl)-propana-mido)propanamido)propanamido)propanamide] ({Propanoyl(3-Pip(4-O-2-BnPh))}-AAA[dF]-NH2) | 912 | 6.04 ± 0.16 |
| C[C@H](NC(=O)CNC(=O)CCN1CCC(Oc2ccccc2Cc2ccccc2)CC1)C(=O)N[C@@H](C)C(=O)N[C@H](Cc1ccccc1)C(N)=O [Compound 8b, (S)-N-((R)-1-Amino-1-oxo-3-phenylpropan-2-yl)-2-((S)-2-(2-(3-(4-(2-benzylphenoxy)piperidin-1-yl)propanamido)acetamido)propanamido)propanamide] ({Propanoyl(3-Pip(4-O-2-BnPh))}-GAA[dF]-NH2) | 513 | 6.29 ± 0.21 |
| CC(C)[C@H](NC(=O)CCN1CCC(Oc2ccccc2Cc2ccccc2)CC1)C(=O)N[C@@H](C)C(=O)N[C@@H](C)C(=O)N[C@H](Cc1ccccc1)C(N)=O [Compound 8c, (S)-N-((S)-1-(((S)-1-(((R)-1-Amino-1-oxo-3-phenylpropan-2-yl)amino)-1-oxopropan-2-yl)amino)-1-oxopropan-2-yl)-2-(3-(4-(2-benzylphenoxy)piperidin-1-yl)propanamido)-3-methylbutanamide] ({Propanoyl(3-Pip(4-O-2-BnPh))}-VAA[dF]-NH2) | 158 | 6.80 ± 0.12 |
| C[C@H](NC(=O)[C@H](C)NC(=O)[C@H](Cc1ccccc1)NC(=O)CCN1CCC(Oc2ccccc2Cc2ccccc2)CC1)C(=O)N[C@H](Cc1ccccc1)C(N)=O [Compound 8d, (S)-N-((S)-1-(((S)-1-(((R)-1-Amino-1-oxo-3-phenylpropan-2-yl)amino)-1-oxopropan-2-yl)amino)-1-oxopropan-2-yl)-2-(3-(4-(2-benzylphenoxy)piperidin-1-yl)propanamido)-3-phenylpropanamide] ({Propanoyl(3-Pip(4-O-2-BnPh))}-FAA[dF]-NH2) | 1320 | 5.88 ± 0.21 |
| C[C@H](NC(=O)[C@H](C)NC(=O)[C@H](Cc1ccc(O)cc1)NC(=O)CCN1CCC(Oc2ccccc2Cc2ccccc2)CC1)C(=O)N[C@H](Cc1ccccc1)C(N)=O [Compound 8e, (S)-N-((S)-1-(((S)-1-(((R)-1-Amino-1-oxo-3-phenylpropan-2-yl)amino)-1-oxopropan-2-yl)amino)-1-oxopropan-2-yl)-2-(3-(4-(2-benzylphenoxy)piperidin-1-yl)propanamido)-3-(4-hydroxyphenyl)propanamide] ({Propanoyl(3-Pip(4-O-2-BnPh))}-YAA[dF]-NH2) | 1180 | 5.93 ± 0.17 |
| C[C@H](NC(=O)[C@H](C)NC(=O)[C@H](CO)NC(=O)CCN1CCC(Oc2ccccc2Cc2ccccc2)CC1)C(=O)N[C@H](Cc1ccccc1)C(N)=O [Compound 8f, (S)-N-((S)-1-(((S)-1-(((R)-1-Amino-1-oxo-3-phenylpropan-2-yl)amino)-1-oxopropan-2-yl)amino)-1-oxopropan-2-yl)-2-(3-(4-(2-benzylphenoxy)piperidin-1-yl)propanamido)-3-hydroxypropanamide] ({Propanoyl(3-Pip(4-O-2-BnPh))}-SAA[dF]-NH2) | 407 | 6.39 ± 0.15 |
| C[C@H](NC(=O)[C@H](C)NC(=O)[C@H](CC(N)=O)NC(=O)CCN1CCC(Oc2ccccc2Cc2ccccc2)CC1)C(=O)N[C@H](Cc1ccccc1)C(N)=O [Compound 8g, (S)-N-((S)-1-(((S)-1-(((R)-1-Amino-1-oxo-3-phenylpropan-2-yl)amino)-1-oxopropan-2-yl)amino)-1-oxopropan-2-yl)-2-(3-(4-(2-benzylphenoxy)piperidin-1-yl)-propanamido)succinamide] ({Propanoyl(3-Pip(4-O-2-BnPh))}-NAA[dF]-NH2) | 562 | 6.25 ± 0.20 |
| C[C@H](NC(=O)[C@H](C)NC(=O)[C@H](Cc1cnc[nH]1)NC(=O)CCN1CCC(Oc2ccccc2Cc2ccccc2)CC1)C(=O)N[C@H](Cc1ccccc1)C(N)=O [Compound 8h, (S)-N-((S)-1-(((S)-1-(((R)-1-Amino-1-oxo-3-phenylpropan-2-yl)amino)-1-oxopropan-2-yl)amino)-1-oxopropan-2-yl)-2-(3-(4-(2-benzylphenoxy)piperidin-1-yl)propanamido)-3-(1H-imidazol-5-yl)propanamide] ({Propanoyl(3-Pip(4-O-2-BnPh))}-HAA[dF]-NH2) | 933 | 6.03 ± 0.13 |
| C[C@H](NC(=O)[C@H](C)NC(=O)[C@H](CCCCN)NC(=O)CCN1CCC(Oc2ccccc2Cc2ccccc2)CC1)C(=O)N[C@H](Cc1ccccc1)C(N)=O [Compound 8i, (S)-6-Amino-N-((S)-1-(((S)-1-(((R)-1-amino-1-oxo-3-phenylpropan-2-yl)amino)-1-oxopropan-2-yl)-amino)-1-oxopropan-2-yl)-2-(3-(4-(2-benzylphenoxy)piperidin-1-yl)-propanamido)hexanamide] ({Propanoyl(3-Pip(4-O-2-BnPh))}-KAA[dF]-NH2) | 1620 | 5.79 ± 0.18 |
| C[C@H](NC(=O)[C@H](C)NC(=O)[C@H](CC(=O)O)NC(=O)CCN1CCC(Oc2ccccc2Cc2ccccc2)CC1)C(=O)N[C@H](Cc1ccccc1)C(N)=O [Compound 8j, (S)-4-(((S)-1-(((S)-1-(((R)-1-Amino-1-oxo-3-phenylpropan-2-yl)amino)-1-oxopropan-2-yl)amino)-1-oxopropan-2-yl)amino)-3-(3-(4-(2-benzylphenoxy)piperidin-1-yl)propanamido)-4-oxobutanoic Acid] ({Propanoyl(3-Pip(4-O-2-BnPh))}-DAA[dF]-NH2) | 1020 | 5.99 ± 0.24 |
| CC(C)[C@H](NC(=O)CCN1CCC(Oc2ccccc2Cc2ccccc2)CC1)C(=O)NCC(=O)N[C@@H](C)C(=O)N[C@H](Cc1ccccc1)C(N)=O [Compound 9a, (S)-N-(2-(((S)-1-(((R)-1-Amino-1-oxo-3-phenylpropan-2-yl)amino)-1-oxopropan-2-yl)amino)-2-oxoethyl)-2-(3-(4-(2-benzylphenoxy)piperidin-1-yl)propanamido)-3-methylbutanamide] ({Propanoyl(3-Pip(4-O-2-BnPh))}-VGA[dF]-NH2) | 501 | 6.30 ± 0.07 |
| CC(C)[C@H](NC(=O)CCN1CCC(Oc2ccccc2Cc2ccccc2)CC1)C(=O)N[C@H](C(=O)N[C@@H](C)C(=O)N[C@H](Cc1ccccc1)C(N)=O)C(C)C [Compound 9b, (S)-N-((S)-1-(((R)-1-Amino-1-oxo-3-phenylpropan-2-yl)amino)-1-oxopropan-2-yl)-2-((S)-2-(3-(4-(2-benzylphenoxy)piperidin-1-yl)propanamido)-3-methylbutanamido)-3-methylbutanamide] ({Propanoyl(3-Pip(4-O-2-BnPh))}-VVA[dF]-NH2) | 372 | 6.43 ± 0.06 |
| CC(C)[C@H](NC(=O)CCN1CCC(Oc2ccccc2Cc2ccccc2)CC1)C(=O)N[C@@H](Cc1ccccc1)C(=O)N[C@@H](C)C(=O)N[C@H](Cc1ccccc1)C(N)=O [Compound 9c, (S)-N-((S)-1-(((S)-1-(((R)-1-Amino-1-oxo-3-phenylpropan-2-yl)amino)-1-oxopropan-2-yl)amino)-1-oxo-3-phenylpropan-2-yl)-2-(3-(4-(2-benzylphenoxy)piperidin-1-yl)-propanamido)-3-methylbutanamide] ({Propanoyl(3-Pip(4-O-2-BnPh))}-VFA[dF]-NH2) | 794 | 6.10 ± 0.20 |
| CC(C)[C@H](NC(=O)CCN1CCC(Oc2ccccc2Cc2ccccc2)CC1)C(=O)N[C@@H](Cc1ccc(O)cc1)C(=O)N[C@@H](C)C(=O)N[C@H](Cc1ccccc1)C(N)=O [Compound 9d, (S)-N-((S)-1-(((S)-1-(((R)-1-Amino-1-oxo-3-phenylpropan-2-yl)amino)-1-oxopropan-2-yl)amino)-3-(4-hydroxyphenyl)-1-oxopropan-2-yl)-2-(3-(4-(2-benzylphenoxy)-piperidin-1-yl)propanamido)-3-methylbutanamide] ({Propanoyl(3-Pip(4-O-2-BnPh))}-VYA[dF]-NH2) | 437 | 6.36 ± 0.04 |
| CC(C)[C@H](NC(=O)CCN1CCC(Oc2ccccc2Cc2ccccc2)CC1)C(=O)N[C@@H](CO)C(=O)N[C@@H](C)C(=O)N[C@H](Cc1ccccc1)C(N)=O [Compound 9e, (S)-N-((S)-1-(((S)-1-(((R)-1-Amino-1-oxo-3-phenylpropan-2-yl)amino)-1-oxopropan-2-yl)amino)-3-hydroxy-1-oxo-propan-2-yl)-2-(3-(4-(2-benzylphenoxy)piperidin-1-yl)-propanamido)-3-methylbutanamide] ({Propanoyl(3-Pip(4-O-2-BnPh))}-VSA[dF]-NH2) | 151 | 6.82 ± 0.06 |
| CC(C)[C@H](NC(=O)CCN1CCC(Oc2ccccc2Cc2ccccc2)CC1)C(=O)N[C@@H](CC(N)=O)C(=O)N[C@@H](C)C(=O)N[C@H](Cc1ccccc1)C(N)=O [Compound 9f, (S)-N1-((S)-1-(((R)-1-Amino-1-oxo-3-phenylpropan-2-yl)amino)-1-oxopropan-2-yl)-2-((S)-2-(3-(4-(2-benzylphenoxy)piperidin-1-yl)propanamido)-3-methylbutanamido)succinamide] ({Propanoyl(3-Pip(4-O-2-BnPh))}-VNA[dF]-NH2) | 832 | 6.08 ± 0.03 |
| CC(C)[C@H](NC(=O)CCN1CCC(Oc2ccccc2Cc2ccccc2)CC1)C(=O)N[C@@H](Cc1cnc[nH]1)C(=O)N[C@@H](C)C(=O)N[C@H](Cc1ccccc1)C(N)=O [Compound 9g, (S)-N-((S)-1-(((S)-1-(((R)-1-Amino-1-oxo-3-phenylpropan-2-yl)amino)-1-oxopropan-2-yl)amino)-3-(1H-imidazol-5-yl)-1-oxopropan-2-yl)-2-(3-(4-(2-benzylphenoxy)piperidin-1-yl)propanamido)-3-methylbutanamide] ({Propanoyl(3-Pip(4-O-2-BnPh))}-VHA[dF]-NH2) | 692 | 6.16 ± 0.06 |
